According to the supplement of paper PMC8882468:

Key:
Experiment in all cases: CTG-3D luminescence at 96 h relative to day-0 seeding control (ratio to day 0); higher = more growth / less cytotoxicity; PDxO 3D drug screen (set 2), 96 h, CTG-3D normalised to day-0 seeding control.
HCI-015 = system: HCI-015 (organoid from a triple-negative breast cancer xenograft)
HCI-025 = system: HCI-025 (organoid from a breast cancer xenograft)
HCI-008 = system: HCI-008 (organoid from a HER2-enriched breast cancer xenograft)
HCI-016 = system: HCI-016 (organoid from a triple-negative breast cancer xenograft)
HCI-010 = system: HCI-010 (organoid from a breast cancer xenograft)

CC(=O)O[C@@]12CO[C@@H]1C[C@H](O)[C@@]1(C)C(=O)[C@H](O)C3=C(C)[C@@H](OC(=O)[C@H](O)[C@@H](NC(=O)OC(C)(C)C)c4ccccc4)C[C@@](O)([C@@H](OC(=O)c4ccccc4)[C@H]21)C3(C)C [docetaxel]
CTG-3D luminescence at 96 h
Settings | 12.5 pM | 0.00025 µM | 0.005 µM | 0.1 µM | 1 µM | 10 µM | 100 µM | 625 fM
HCI-008, days in culture: 325 | 1.01 | 1.46 | 1.35 | 1.91 | 2.06 | 1.53 | 0.0817 | 1.14
HCI-008, days in culture: 340 | 0.747 | 1.06 | 1.26 | 0.976 | 0.918 | – | 0.0677 | 0.77
HCI-008, days in culture: 354 | 1.16 | 1.01 | 1.5 | 1.16 | 0.508 | 1.23 | 0.211 | 0.885
HCI-008, days in culture: 382 | 1.56 | 1.35 | 0.719 | 0.823 | 0.446 | 0.547 | 0.0143 | 1.74
HCI-010, days in culture: 79 | 1.26 | 1.41 | 1.14 | 0.967 | 0.815 | 0.987 | 0.000117 | 1.74
HCI-010, days in culture: 86 | 2.16 | 2.35 | 2.01 | 0.907 | 0.734 | 0.847 | 0.00279 | 2.24
HCI-010, days in culture: 102 | 1.2 | 0.987 | 0.747 | 0.491 | 0.519 | 0.375 | 0.00091 | 1.07
HCI-010, days in culture: 164 | 1.68 | 1.45 | 1.1 | 0.611 | 0.719 | 0.646 | 0.00438 | 1.43
HCI-015, days in culture: 333 | 1.1 | 0.869 | 0.428 | 0.469 | 0.526 | 0.304 | 0.0462 | 0.76
HCI-015, days in culture: 355 | 1.2 | 0.928 | 0.736 | 0.737 | 0.975 | 0.684 | 0.105 | 0.757
HCI-015, days in culture: 369 | 1.06 | 0.83 | 0.967 | 0.721 | 0.553 | 0.702 | 0.176 | 1.69
HCI-016, days in culture: 305 | 1.51 | 1.9 | 1.03 | 1.42 | 0.985 | 0.955 | 0.0636 | 1.77
HCI-016, days in culture: 327 | 0.628 | 0.252 | 0.393 | 0.838 | 0.432 | 0.497 | 0.0762 | 0.906
HCI-016, days in culture: 341 | 1.18 | 1.18 | 0.786 | 0.962 | 0.862 | 0.954 | 0.11 | 1.59
HCI-016, days in culture: 397 | 1.74 | 1.18 | 0.667 | 0.792 | 0.484 | 0.997 | 0.19 | 2.27
HCI-025, days in culture: 175 | 0.586 | 0.61 | 0.547 | 0.494 | 0.674 | 0.771 | 0.387 | 0.704
HCI-025, days in culture: 189 | 0.971 | 0.89 | 0.694 | 1.01 | 0.76 | 0.759 | 0.286 | 1.74
HCI-025, days in culture: 212 | 2.49 | 1.38 | 0.974 | 0.822 | 0.332 | 0.385 | 0.187 | 0.772
HCI-025, days in culture: 224 | 2.29 | 2.24 | 0.853 | 0.501 | 0.639 | 0.685 | 0.065 | 1.64
